From patent US20240252520A1 (priority 2023, published 2024)
“Also recorded” adds a separate entry of the source.

Tests used:
db/db mouse model [1] = assay: Receptor agonists and antagonists on db/db mouse wounds, day 5 sacrifice; conditions: 2 mg/kg topically daily with blk-gel; Chrm1, Chrm3 or α7nAChR agonist
fibroblasts [2] = assay: Alamar Blue assay of fibroblast metabolic activity; assay type: cell-based, human; conditions: over three days after treatment
Text: (§1) This concentration was selected for all subsequent experiments (FIG. 24A).
Following the in silico prioritization of metrifonate as a key compound in promoting wound healing, we determined if addition of metrifonate influenced key cell functions in tissue cultures of cells that are implicated in wound healing, such as fibroblasts, keratinocytes and macrophages.
In a further example, an alamarBlue™ Assay can be used as follows: Human dermal fibroblasts (immortalized cell line, abm Cat. No. T0904) are cultured in complete medium (PriGrow III with 10% Fetal Bovine Serum, 100U/L penicillin, and 100 ug/L streptomycin) at 37° C. in 5% CO2. The cells are passaged every 7 days using 0.025% trypsin-ethylenediaminetetraacetic acid (Life Technologies) and plated at 10,000 cells per well in 96-well plates. […] Cell viability is determined by alarmarBlue™ (Invitrogen) after 48h, and 72h of incubation. Briefly, after 48 or 72h of incubation the media containing inhibitors is removed and replaced with 10% v/v alamarBlue™ in complete media and the plate is incubated at 37° C. for further 24 h. After this incubation period, plates are read at an excitation range of 540-570 nm and an emission range of 580-610 nm. All AchE inhibitors are expected to not negatively affect cell proliferation up to the concentration of 10 μg/ml.

keratinocytes [3] = assay: Wound healing scratch assay of keratinocytes with metrifonate; assay type: cell-based; conditions: 10 μg/ml, after 24 hours
Experimental: as §1
Keratinocyte HaCaT cells (ATCC) are cultured in complete medium (Dulbecco's Modified Eagle Medium with 10% Fetal Bovine Serum, 100U/L penicillin, and 100 ug/L streptomycin) at 37° C. in 5% CO2. The cells are passaged every 5 days using 0.025% trypsin-ethylenediaminetetraacetic acid (Life Technologies) detachment and plated at 100,000 cells per well in 24-well plates. The cell monolayer is scratched in a straight line using a P200 pipette tip. […] Images are taken immediately after the scratch (0 h), in 6 h, 12 h, 24 h, 48 h, and 72 h for at least four wells per condition. Scratch areas are analyzed using ImageJ/FIJI. At least three independent experiments are performed. All AchE inhibitors are expected to promote faster wound coverage up to the concentration of 10 μg/ml.

[4] = system: THP-1 derived macrophages; assay: Cytokine gene expression in THP-1 derived macrophages polarized to M0, M1, M2; assay type: cell-based, human
Text: as §1

db/db mouse model [5] = assay: LD-Met gel in db/db mice, Day 5 and Day 10 wound analyses; assay type: in vivo; conditions: Day 5
[6] = target: T1, Acetylcholinesterase (AchE) (Mus musculus, UniProt P21836); assay: AchE activity in Day 5 mouse wound lysates; assay type: in vivo; conditions: Day 5, 2 days after bandage removal
T1 construct: measuring the levels of the enzyme on Day 5 in mouse wounds lysates; from tissue; host or cells: skin wound tissue lysate of db/db mice, Day 5 after wounding
T1 sequence (P21836 32-614): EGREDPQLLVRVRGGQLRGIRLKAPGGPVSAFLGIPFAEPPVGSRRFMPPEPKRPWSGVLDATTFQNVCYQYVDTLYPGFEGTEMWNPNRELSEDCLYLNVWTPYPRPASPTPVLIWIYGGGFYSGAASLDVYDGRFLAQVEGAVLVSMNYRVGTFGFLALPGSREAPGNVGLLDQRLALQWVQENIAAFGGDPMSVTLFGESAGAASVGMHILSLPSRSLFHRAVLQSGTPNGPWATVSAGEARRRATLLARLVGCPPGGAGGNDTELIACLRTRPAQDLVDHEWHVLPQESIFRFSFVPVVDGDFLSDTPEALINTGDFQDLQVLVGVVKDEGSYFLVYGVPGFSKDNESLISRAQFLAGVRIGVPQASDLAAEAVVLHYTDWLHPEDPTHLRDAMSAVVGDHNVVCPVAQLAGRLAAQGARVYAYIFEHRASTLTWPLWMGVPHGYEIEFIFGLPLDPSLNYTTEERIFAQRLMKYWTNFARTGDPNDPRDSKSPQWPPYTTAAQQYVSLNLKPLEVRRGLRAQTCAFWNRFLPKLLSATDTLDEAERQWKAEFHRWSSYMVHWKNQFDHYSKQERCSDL

diabetic humanized mice = assay: Metrifonate hydrogel on diabetic humanized mice wounds; assay type: in vivo, mouse
Text: These genes are well known to improve impaired diabetic wound healing, see Berry-Kilgour et al., Advancements in the Delivery of Growth Factors and Cytokines for the Treatment of Cutaneous Wound Indications; Adv Wound Care (New Rochelle) 2021; 10(11):596-622. Epub 20201125. doi:10/1089?wound.2020.1183. PubMed PMID:33086946: PMCID: PMC8392095.
To generate a humanized skin graft mice model, Foxn1nu nude male mice of 6 weeks old can be used as the recipient animals. These mice are devoid of T cells and suffer from a lack of cell-mediated immunity making them a model of choice for xenograft studies. […] Following the sustained diabetic state period, wounds are inflicted on the transplanted human skin with a 3 mm punch biopsy, treatment options include the best two Metrifonate-Hydrogel dressings, previously determined by the mice and pig studies for the preferred two doses. […] Wound healing can be monitored using standardized photography daily during the course of 3, 5 and 10 days. […]
To generate a humanized skin graft mice model, Foxn1nu nude male mice of 6 weeks old can be used as the recipient animals. […] Following the sustained diabetic state period, wounds are inflicted on the transplanted human skin with a 3 mm punch biopsy, treatment options include the best two Metrifonate-Hydrogel dressings, previously determined by the mice and pig studies for the preferred two doses. […]

[7] = oral 30-60 mg daily up to 26 weeks; cited from earlier work
fibroblasts [8] = assay: Nicotinic and muscarinic receptor gene expression, fibroblasts; conditions: 48 hours
keratinocytes [9] = assay: Nicotinic and muscarinic receptor gene expression, keratinocytes; conditions: 48 hours
acute porcine wounds = assay: Metrifonate eluting dressings on acute porcine wounds over 20 days
[10] = system: THP-1 monocyte derived macrophages; assay: Nicotinic and muscarinic receptor gene expression, THP-1 monocyte derived macrophages; conditions: 48 hours
diabetic db/db mice = assay: LNP-FGF2, LNP-IL-2, LNP-CHI3L1, LNP-IL-17A mRNA bandages in db/db mice (Example 15); assay type: in vivo, mouse
Experimental: Two 6-mm punch biopsy full-thickness wounds were created on the dorsum of 16-week-old diabetic db/db mice (FIG. 19A). Macroporous bandages loaded with 4 μg of LNP-FGF2, LNP-IL-2, LNP-CHI3L1, and LNP-IL-17A mRNA were topically applied on the wounds for 10 days. […] The wound size was measured every three days.

**Q.** With C[N+](C)(C)CC#CCOC(=O)Nc1cccc(Cl)c1.[Cl-] [McN-A 343] as the compound, how does the “effect of agonist on wound healing” value (db/db mouse model [1]) read?
**A.** The value was “promoted the wound healing; also recorded: accelerated wound healing”.

**Q.** With O=C(N[C@H]1CN2CCC1CC2)c1ccc(Cl)cc1 [PNU-282987] as the compound, how does the “effect of agonist on wound healing” value (db/db mouse model [1]) read?
**A.** Its value is “only the M1 agonist accelerated wound healing”.

**Q.** With COP(=O)(OC)C(O)C(Cl)(Cl)Cl (stereo not shown) [metrifonate, (2,2,2-trichloro-1-hydroxyethyl) dimethylphosphonate] as the compound, how does the “metrifonate concentration that began to negatively affect viability” value (fibroblasts [2]) read?
**A.** Its value is “over 10 μg/ml”.

**Q.** What about the “keratinocyte migration / scratch wound closure” value (keratinocytes [3]) of the same compound?
**A.** The value was “significantly accelerate migration”.

**Q.** What about the “increase in IL10 gene expression” value ([4]; M0 macrophages) of the same compound?
**A.** The value was 30 fold.

**Q.** And the “downregulation of IL1b” value ([4]; M1 cells)?
**A.** Its value is 12 fold.

**Q.** And the “downregulation of TNF” value ([4]; M1 cells)?
**A.** Its value is 40 fold.

**Q.** What about the “increase in IL10 gene expression” value ([4]; M2 macrophages) of the same compound?
**A.** Its value is 10 fold.

**Q.** What about the “total and degranulated mast cells (toluidine blue staining)” value (db/db mouse model [5]) of the same compound?
**A.** The value was “enrichment of both total and degranulated mast cells”.

**Q.** And the “Acetylcholinesterase (AchE) activity in wounds” value [6]?
**A.** Its value is “inhibits the activity of Acetylcholinesterase (AchE)”.

**Q.** What about the wound healing (diabetic humanized mice; low dose hydrogel vs blank hydrogel, D0 to D7) of the same compound?
**A.** Its wound healing is “improved wound healing”.

**Q.** And the “expression of Il10, Arg and human gene VEGFA (RT-qPCR)” value (diabetic humanized mice; upon sacrifice)?
**A.** The value was “increased the expression”.

**Q.** And the “clinical effect in mild-to-moderate Alzheimer's disease” value [7]?
**A.** The value was “beneficial effect”.

**Q.** What about the receptor gene expression (fibroblasts [8]) of the same compound?
**A.** The receptor gene expression was “activation of CHRNA4; also recorded: increased expression of CHRNA4”.

**Q.** What about the receptor gene expression (keratinocytes [9]) of the same compound?
**A.** Its receptor gene expression is “up-regulation of CHRM3 and CHRNB4 receptors”.

**Q.** And the adverse effects (acute porcine wounds)?
**A.** Its adverse effects is “did not induce any adverse effects”.

**Q.** What about the “wound lengths in histological assessment” value (acute porcine wounds) of the same compound?
**A.** Its value is “shorter wound lengths”.

**Q.** What about the receptor gene expression ([10]; M0 cells) of the same compound?
**A.** Its receptor gene expression is “activation of CHRM3 receptor; also recorded: up-regulation of CHRM3 receptor”.

**Q.** What about the receptor gene expression ([10]; M1 cells) of the same compound?
**A.** Its receptor gene expression is “activation of CHRM4; also recorded: higher expression of CHRM4 and CHRNA3 receptors”.

**Q.** With “CHI3L1 protein: bandages loaded with CHI3L1 protein employed as additional control” as the compound, how does the “wound healing during the whole period vs blank bandage (repeated measurement analysis)” value (diabetic db/db mice; 4 μg bandage, D0 to D10) read?
**A.** Its value is “no differences in wound healing”.

**Q.** And the “wound reduction on Day 10” value (diabetic db/db mice; Day 10, compared with blank)?
**A.** The value was “similar”.

**Q.** Which “effect of agonist on wound healing” value (db/db mouse model [1]) does the source give for LASSBIo0897 here?
**A.** Its value is “only the M1 agonist accelerated wound healing”.
